# Results published in patent US8475783B2, “Apparatus and method for generating carbon dioxide as an attractant for biting arthropods” (priority 2011, dated 2013).
# Test system: mosquitoes
# Assay: Field mosquito collection with CDC-type mosquito trap baited with carbon dioxide
# Type: in vivo
# Details: for mosquitoes collected: carbon dioxide flow rate 250 mL/min
# Experimental: As in Example 2, except that the sodium bicarbonate was delivered at 0.94 g·min so as to give a carbon dioxide flow rate of 250 mL/min. The gas outlet was coupled to a CDC-type mosquito trap, available from the John W. Hock Company of Gainesville Fla., and allowed to collect mosquitoes for 12 hours. For comparison, a similar trap but with carbon dioxide from a tank was placed about 100 m away. Sites were selected so as to provide a testing area that is known to be infested by mosquitoes and to provide similar terrain. In the comparison apparatus care was taken to use the same carbon dioxide flow rate.
compound,measurement,setting,value
"O=C=O [CO2 Gas Tank, carbon dioxide]",mosquitoes collected,"Aug. 2, 2010, 12 hours",12
same,mosquitoes collected,"Aug. 5, 2010, 12 hours",1
same,mosquitoes collected,"Jul. 8, 2010, 12 hours",73
same,mosquitoes collected,"Jul. 12, 2010, 12 hours",49
same,mosquitoes collected,"Jul. 14, 2010, 12 hours",14
same,mosquitoes collected,"Jul. 15, 2010, 12 hours",73
same,mosquitoes collected,"Jul. 20, 2010, 12 hours",53
same,mosquitoes collected,"Jun. 23, 2010, 12 hours",99
same,mosquitoes collected,"Jun. 29, 2010, 12 hours",34
same,Total collected (mosquitoes),"sum over 9 non-consecutive days, 12 hours each, 250 mL/min carbon dioxide",408
